Common to all, as to type: binding
The target in assay [1] is T1, PilB (CtPilB), type IV pilus assembly ATPase (Chloracidobacterium thermophilum, UniProt G2LDI3).
T1 construct: gene Cabther_A1696
The experiment in a line: fluorescence enhancement titration of MANT-ATP with CtPilB.

In assay [2] the target is T1, PilB (CtPilB), type IV pilus assembly ATPase. The experiment in a line: competitive displacement of fluorescent MANT-ATP.
For assay [3] the target is unchanged. The experiment in a line: competitive displacement of fluorescent MANT-ATP (IC50 […]).

Molecules are shown by their SMILES.

The Kd is the free concentration of one partner at which half of the binding sites on the other are occupied at equilibrium, for simple one-to-one binding. For orientation: IC50 means the point on the concentration scale where inhibition reaches its midpoint. By Ki is commonly meant a measure of affinity in units of concentration, obtained from inhibition or displacement. A low value points to higher affinity.

T1 sequence (G2LDI3 entry or part of it): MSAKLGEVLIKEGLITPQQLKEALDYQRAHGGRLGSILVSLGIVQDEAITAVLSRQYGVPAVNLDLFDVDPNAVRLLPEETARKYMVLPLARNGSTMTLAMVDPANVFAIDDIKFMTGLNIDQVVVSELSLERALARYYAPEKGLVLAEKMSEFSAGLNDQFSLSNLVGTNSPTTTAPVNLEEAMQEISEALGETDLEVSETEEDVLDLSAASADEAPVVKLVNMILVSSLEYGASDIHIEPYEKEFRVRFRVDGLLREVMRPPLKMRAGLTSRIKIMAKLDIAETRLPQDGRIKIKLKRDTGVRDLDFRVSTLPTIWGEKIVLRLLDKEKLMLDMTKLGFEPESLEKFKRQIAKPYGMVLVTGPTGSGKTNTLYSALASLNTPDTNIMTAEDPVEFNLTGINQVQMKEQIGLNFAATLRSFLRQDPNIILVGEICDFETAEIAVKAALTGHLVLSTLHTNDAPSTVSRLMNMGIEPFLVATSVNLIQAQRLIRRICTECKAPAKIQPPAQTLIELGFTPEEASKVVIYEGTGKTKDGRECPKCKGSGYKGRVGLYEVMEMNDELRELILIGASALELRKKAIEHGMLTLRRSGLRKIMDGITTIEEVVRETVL

On to `CNc1ccccc1C(=O)O[C@H]1[C@@H](O)[C@H](n2cnc3c(N)ncnc32)O[C@@H]1CO[P@@](=O)(O)O[P@](=O)(O)OP(=O)(O)O` [MANT-ATP], for which, in assay [1], the Kd was determined as 290 ± 10 nM.
In turn, `Nc1ncnc2c1ncn2[C@@H]1O[C@H](COP(=O)(O)OP(=O)(O)O)[C@@H](O)[C@H]1O` [ADP] came in with an IC50 in assay [2] of 3070 nM.
Consider `Nc1ncnc2c1ncn2[C@@H]1O[C@H](COP(=O)(O)OP(=O)(O)OP(=O)(O)O)[C@@H](O)[C@H]1O` [ATP], for which the Ki in assay [3] was 2200 nM.

The values above are taken from article PMC8546689, “High-Throughput Screen for Inhibitors of the Type IV Pilus Assembly ATPase PilB” (mSphere, 2021).
